Laboratory results as given in patent US8937062B2, “Compositions and methods for treating, reducing, ameliorating, or preventing infections caused by antibacterial drug-resistant bacteria” (Bausch & Lomb Incorporated, priority 2007, dated 2015).
Values after ≈ are worked out from the molar mass of the structure shown.

Legend:
[1] = tested on: GM-resistant P. aeruginosa; experiment: MIC90, agar plate dilution method (NCCLS), Table 2; type: cell-based; conditions: 10 isolates
Experimental: (§1) The MIC90 values for this test were determined by the agar plate dilution method according to the National Committee for Clinical Laboratory Standards (“NCCLS”).

[2] = tested on: APC-resistant Haemophilus influenza.; experiment: MIC90, agar plate dilution method (NCCLS), Table 2; type: cell-based; conditions: APC-resistant Haemophilus influenza., 10 isolates
Experimental: as §1

[3] = tested on: PCG-resistant S. pneumoniae; experiment: MIC90, agar plate dilution method (NCCLS), Table 2; type: cell-based; conditions: 10 isolates
Experimental: as §1

[4] = tested on: OFLX-resistant Enterobacteriaceae; experiment: MIC90, agar plate dilution method (NCCLS), Table 2; type: cell-based; conditions: OFLX-resistant Enterobacteriaceae, 10 isolates
Experimental: as §1

GM-resistant S. aureus = experiment: MIC90, agar plate dilution method (NCCLS), Table 2; type: cell-based; conditions: 10 isolates
Experimental: as §1

OFLX-resistant S. aureus = experiment: MIC90, agar plate dilution method (NCCLS), Table 2; type: cell-based; conditions: 10 isolates
Experimental: as §1

[5] = tested on: S. aureus Clinical Isolates; experiment: In vitro activity against clinical isolates, sixth test, Table 7; type: cell-based; conditions: 49 isolates
[6] = tested on: penicillin-resistant S. aureus; experiment: MIC90, Japanese Society of Chemotherapy guidelines (1993), Table 3; type: cell-based
Experimental: (§2) In a second test, compounds having Formulae IV and V, their racemic mixture, and OFLX were tested in vitro against S. aureus strains that are resistant to methicillin or penicillin. The test was conducted according to the guidelines of the Japanese Society of Chemotherapy (1993).

[7] = tested on: methicillin-resistant S. aureus; experiment: as above; type: cell-based
Experimental: as §2

[8] = tested on: Ofloxacin-resistant Staphylococcus aureus; experiment: In vitro anti-bacterial activity, resistant clinical isolates, fifth test, Table 6; type: cell-based
Excerpt: (§3) As disclosed above, most of these bacteria strains are also relevant to infections of the ear and upper respiratory tract.

[9] = tested on: Gentamicin-resistant Pseudomonas aeruginosa; experiment: as above; type: cell-based
Excerpt: as §3

[10] = tested on: Penicillin-resistant Streptococcus pneumoniae; experiment: as above; type: cell-based
Excerpt: as §3

[11] = tested on: Gentamicin-resistant Staphylococcus aureus; experiment: as above; type: cell-based
Excerpt: as §3

[12] = tested on: Methicillin-Resistant S. aureus Isolates; experiment: In vitro anti-bacterial activity, fourth test, Table 5; type: cell-based, Staphylococcus aureus
Experimental: In a fourth test, the anti-bacterial activity of the compound having Formula IV was tested against some methicillin-resistant S. aureus bacteria strains and compared to the anti-bacterial activity of three commercially available antibiotics: nadifloxacin (“NDFX”), ofloxacin (“OFLX”), and sparfloxacin (“SPFX”).

[13] = tested on: S. pneumoniae Clinical Isolates; experiment: In vitro activity against clinical isolates, sixth test, Table 7; type: cell-based; conditions: 78 isolates
[14] = tested on: Ofloxacin-resistant Enterobacteriaceae; experiment: organism not typed; type: cell-based; conditions: Ofloxacin-resistant Enterobacteriaceae, clinical isolates, fifth test
Excerpt: as §3

[15] = tested on: S. epidermidis, methicillin-resistant; experiment: MIC90, broth microdilution (CLSI M7-A7), Table 4; type: cell-based; conditions: 64 isolates
Experimental: (§4) The MIC90 values were determined according to the broth microdilution method outlined in the Clinical and Laboratory Standards Institute Approved Standard M7-A7 (2006).

[16] = tested on: E. cloacae, extended-spectrum β-lactamase positive; experiment: MIC90, broth microdilution (CLSI M7-A7), Table 4; type: cell-based; conditions: 15 isolates
Experimental: as §4

[17] = tested on: S. aureus, methicillin- and ciprofloxacin-resistant; experiment: MIC90, broth microdilution (CLSI M7-A7), Table 4; type: cell-based; conditions: 24 isolates
Experimental: as §4

[18] = tested on: H. influenzae, β-lactamase positive, ampicillin-resistant; experiment: MIC90, broth microdilution (CLSI M7-A7), Table 4; type: cell-based; conditions: 25 isolates
Experimental: as §4

[19] = tested on: S. aureus, vancomycin-intermediately resistant; experiment: MIC90, broth microdilution (CLSI M7-A7), Table 4; type: cell-based; conditions: 23 isolates
Experimental: as §4

[20] = tested on: S. aureus, methicillin-resistant and ciprofloxacin-sensitive; experiment: MIC90, broth microdilution (CLSI M7-A7), Table 4; type: cell-based; conditions: 25 isolates
Experimental: as §4

[21] = tested on: S. pneumoniae, levofloxacin-resistant; experiment: MIC90, broth microdilution (CLSI M7-A7), Table 4; type: cell-based; conditions: 25 isolates
Experimental: as §4

[22] = tested on: S. pneumoniae, penicillin-resistant; experiment: MIC90, broth microdilution (CLSI M7-A7), Table 4; type: cell-based; conditions: 26 isolates
Experimental: as §4

[23] = tested on: S. aureus, vancomycin-resistant; experiment: MIC90, broth microdilution (CLSI M7-A7), Table 4; type: cell-based; conditions: 3 isolates
Experimental: as §4

[24] = tested on: S. pneumoniae, penicillin-intermediately resistant; experiment: MIC90, broth microdilution (CLSI M7-A7), Table 4; type: cell-based; conditions: 26 isolates
Experimental: as §4

[25] = tested on: H. influenzae, β-lactamase positive; experiment: MIC90, broth microdilution (CLSI M7-A7), Table 4; type: cell-based; conditions: 53 isolates
Experimental: as §4

N[C@@H]1CCCCN(c2c(F)cc3c(=O)c(C(=O)O)cn(C4CC4)c3c2Cl)C1 [Compound IV]
MIC90 Geometric Mean [1]: 5.28 µg/mL (≈ 13.4 µM)
MIC90 Range [1]: 0.5 to 32 µg/mL
MIC90 Value [1]: 32 µg/mL (≈ 81.3 µM)
MIC90 Geometric Mean [2]: ≦0.06 μg/ml
MIC90 Range [2]: ≦0.06 μg/ml
MIC90 Value [2]: ≦0.06 μg/ml
MIC90 Geometric Mean [3]: 0.10 µg/mL (≈ 0.254 µM)
MIC90 Range [3]: ≦0.06-0.13 μg/ml
MIC90 Value [3]: 0.13 µg/mL (≈ 0.33 µM)
MIC90 Geometric Mean [4]: 11.3 µg/mL (≈ 28.7 µM)
MIC90 Range [4]: 4 to 32 µg/mL
MIC90 Value [4]: 16 µg/mL (≈ 40.6 µM)
MIC90 Geometric Mean (GM-resistant S. aureus): 0.65 µg/mL (≈ 1.65 µM)
MIC90 Range (GM-resistant S. aureus): ≦0.006-8 μg/ml
MIC90 Value (GM-resistant S. aureus): 4 µg/mL (≈ 10.2 µM)
MIC90 Geometric Mean (OFLX-resistant S. aureus): 2.14 µg/mL (≈ 5.43 µM)
MIC90 Range (OFLX-resistant S. aureus): 0.5 to 8 µg/mL
MIC90 Value (OFLX-resistant S. aureus): 8 µg/mL (≈ 20.3 µM)
MIC90 Range [5]: 0.015 to 2 µg/mL
MIC90 Value [5]: 0.25 µg/mL (≈ 0.635 µM)
MIC90 ([6]; S. aureus (ATCC 11632)): 0.025 µg/mL (≈ 0.0635 µM)
MIC90 ([6]; S. aureus (ATCC 13301)): 0.012 µg/mL (≈ 0.0305 µM)
MIC90 ([7]; S. aureus (ATCC 33591)): 0.025 µg/mL (≈ 0.0635 µM)
MIC90 ([7]; S. aureus (ATCC 33592)): 0.012 µg/mL (≈ 0.0305 µM)
MIC90 ([7]; S. aureus (ATCC 33593)): 0.025 µg/mL (≈ 0.0635 µM)
MIC90 ([7]; S. aureus (No. 395)): 0.025 µg/mL (≈ 0.0635 µM)
MIC90 ([7]; S. aureus (No. 415)): 0.012 µg/mL (≈ 0.0305 µM)
MIC90 ([7]; S. aureus (No. 419)): 0.025 µg/mL (≈ 0.0635 µM)
MIC90 ([7]; S. aureus (No. 420)): 0.012 µg/mL (≈ 0.0305 µM)
MIC90 ([7]; S. aureus (No. 421)): 0.025 µg/mL (≈ 0.0635 µM)
MIC90 [8]: 8 µg/mL (≈ 20.3 µM)
MIC90 [9]: 32 µg/mL (≈ 81.3 µM)
MIC90 [10]: 0.13 µg/mL (≈ 0.33 µM)
MIC90 [11]: 4 µg/mL (≈ 10.2 µM)
MIC90 ([12]; Staphylococcus aureus (ATCC 33591)): 0.012 µg/mL (≈ 0.0305 µM)
MIC90 ([12]; Staphylococcus aureus (ATCC 33592)): 0.05 µg/mL (≈ 0.127 µM)
MIC90 ([12]; Staphylococcus aureus (ATCC 33593)): 0.012 µg/mL (≈ 0.0305 µM)
MIC90 ([12]; Staphylococcus aureus (No. 395)): 0.006 µg/mL (≈ 0.0152 µM)
MIC90 ([12]; Staphylococcus aureus (No. 415)): 0.05 µg/mL (≈ 0.127 µM)
MIC90 ([12]; Staphylococcus aureus (No. 419)): 0.1 µg/mL (≈ 0.254 µM)
MIC90 ([12]; Staphylococcus aureus (No. 420)): 0.1 µg/mL (≈ 0.254 µM)
MIC90 ([12]; Staphylococcus aureus (No. 421)): 0.2 µg/mL (≈ 0.508 µM)
MIC90 Range [13]: 0.03 to 0.12 µg/mL
MIC90 Value [13]: 0.12 µg/mL (≈ 0.305 µM)
MIC90 [14]: 16 µg/mL (≈ 40.6 µM)
MIC90 Geometric Mean [15]: 0.397 µg/mL (≈ 1.01 µM)
MIC90 Value [15]: 8 µg/mL (≈ 20.3 µM)
MIC90 Geometric Mean [16]: 4.595 µg/mL (≈ 11.7 µM)
MIC90 Value [16]: >8 µg/mL
MIC90 Geometric Mean [17]: 1.542 µg/mL (≈ 3.92 µM)
MIC90 Range [17]: 0.5 to 8 µg/mL
MIC90 Value [17]: 8 µg/mL (≈ 20.3 µM)
MIC90 Geometric Mean [18]: 0.044 µg/mL (≈ 0.112 µM)
MIC90 Range [18]: 0.015 to 0.25 µg/mL
MIC90 Value [18]: 0.12 µg/mL (≈ 0.305 µM)
MIC90 Geometric Mean [19]: 0.652 µg/mL (≈ 1.66 µM)
MIC90 Range [19]: 0.03 to 2 µg/mL
MIC90 Value [19]: 2 µg/mL (≈ 5.08 µM)
MIC90 Geometric Mean [20]: 0.033 µg/mL (≈ 0.0838 µM)
MIC90 Range [20]: 0.015 to 1 µg/mL
MIC90 Value [20]: 0.06 µg/mL (≈ 0.152 µM)
MIC90 Geometric Mean [21]: 1.028 µg/mL (≈ 2.61 µM)
MIC90 Range [21]: 0.5 to 8 µg/mL
MIC90 Value [21]: 2 µg/mL (≈ 5.08 µM)
MIC90 Geometric Mean [22]: 0.108 µg/mL (≈ 0.274 µM)
MIC90 Range [22]: 0.06 to 0.12 µg/mL
MIC90 Value [22]: 0.12 µg/mL (≈ 0.305 µM)
MIC90 Geometric Mean [23]: 1.587 µg/mL (≈ 4.03 µM)
MIC90 Range [23]: 1 to 4 µg/mL
MIC90 Geometric Mean [24]: 0.120 µg/mL (≈ 0.305 µM)
MIC90 Range [24]: 0.06 to 2 µg/mL
MIC90 Value [24]: 0.12 µg/mL (≈ 0.305 µM)
MIC90 Geometric Mean [25]: 0.027 µg/mL (≈ 0.0686 µM)
MIC90 Range [25]: 0.015 to 0.06 µg/mL
MIC90 Value [25]: 0.03 µg/mL (≈ 0.0762 µM)
